According to the supplement of paper PMC10307832:

Columns and labels:
Assay in all cases: relative viability (nuclei count vs DMSO), 5 days (fraction); higher = more cells survive
[1] = compound: OCc1c[nH]c2ccccc12 [Indole-3-carbinol] + CC1(C)CCC(c2ccc(Cl)cc2)=C(CN2CCN(c3ccc(C(=O)NS(=O)(=O)c4ccc(N[C@H](CCN5CCOCC5)CSc5ccccc5)c(S(=O)(=O)C(F)(F)F)c4)cc3)CC2)C1 [Navitoclax] (partner 0.5 µM)
Summary of the method: (§1)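 For relative viability, nuclei counts in treated wells were divided by those in vehicle wells. Lung cancer cell lines had been pin-tool dosed in 1536-well plates the day after seeding and cultured for 5 days, then fixed and stained in one step (final 0.05% Triton X-100, 1% formaldehyde, 1 ug/ml Hoechst) and imaged at 4×. Doses were one drug alone or a fixed anchor-drug dose plus five library-drug doses (not always all listed) in √10 steps, and values are duplicate-plate medians.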

[2] = compound: OCc1c[nH]c2ccccc12 [Indole-3-carbinol] + COc1cc2c(Oc3ccc(NC(=O)C4(C(=O)Nc5ccc(F)cc5)CC4)cc3F)ccnc2cc1OCCCN1CCOCC1 [Foretinib] (partner 0.25 µM)
Summary of the method: as §1

[3] = compound: OCc1c[nH]c2ccccc12 [Indole-3-carbinol] + Cc1cc(Nc2cc(N3CCN(C)CC3)nc(Sc3ccc(NC(=O)C4CC4)cc3)n2)n[nH]1 [Tozasertib] (partner 0.1 µM)
Summary of the method: as §1

[4] = compound: OCc1c[nH]c2ccccc12 [Indole-3-carbinol] + Cc1nc(Nc2ncc(C(=O)Nc3c(C)cccc3Cl)s2)cc(N2CCN(CCO)CC2)n1 [Dasatinib] (partner 0.075 µM)
Summary of the method: as §1

[5] = compound: OCc1c[nH]c2ccccc12 [Indole-3-carbinol] + Nc1ncn([C@H]2C[C@H](O)[C@@H](CO)O2)c(=O)n1 [Decitabine] (partner 2 µM)
Summary of the method: as §1

Cell Line	relative viability ([1]; first compound 0.253 µM)	relative viability ([1]; first compound 0.8 µM)	relative viability ([1]; first compound 2.53 µM)	relative viability ([1]; first compound 8 µM)	relative viability ([2]; first compound 0.253 µM)	relative viability ([2]; first compound 0.8 µM)	relative viability ([2]; first compound 2.53 µM)	relative viability ([2]; first compound 8 µM)	relative viability ([3]; first compound 0.253 µM)	relative viability ([3]; first compound 0.8 µM)	relative viability ([3]; first compound 2.53 µM)	relative viability ([3]; first compound 8 µM)	relative viability ([4]; first compound 0.253 µM)	relative viability ([4]; first compound 0.8 µM)	relative viability ([4]; first compound 2.53 µM)	relative viability ([4]; first compound 8 µM)	relative viability ([5]; first compound 0.253 µM)	relative viability ([5]; first compound 0.8 µM)	relative viability ([5]; first compound 2.53 µM)	relative viability ([5]; first compound 8 µM)
LXF-289	0.966	0.96	0.904	0.927	0.973	0.978	0.968	0.945	0.228	0.21	0.289	0.199	0.256	0.229	0.258	0.203	0.383	0.324	0.362	0.369
NCI-H23	0.853	0.843	0.856	0.762	1.03	1.01	1.04	1.02	0.351	0.359	0.345	0.377	0.793	1.01	0.936	0.675	0.335	0.314	0.316	0.291
NCI-H322M	1.37	1.26	1.14	1.18	0.827	0.998	0.876	0.829	0.476	0.465	0.458	0.472	0.239	0.245	0.237	0.255	0.725	0.659	0.722	0.675
NCI-H441	0.809	0.568	0.579	0.688	0.784	1.1	0.952	1.05	0.551	0.782	0.702	0.595	0.606	0.598	0.711	0.643	0.241	0.245	0.283	0.234
NCI-H460	1.2	1.46	1.08	1	1.03	1.02	1.02	0.992	0.426	0.385	0.532	0.443	0.451	0.59	0.499	0.444	0.564	0.44	0.518	0.473
NCI-H520	1.12	0.999	1.14	1.12	0.863	0.774	0.705	0.62	0.445	0.46	0.417	0.457	0.177	0.245	0.242	0.183	0.526	0.541	0.505	0.541
NCI-H596	0.977	1.02	0.921	0.826	0.921	0.885	1.05	0.791	0.803	1.04	0.784	0.896	0.649	0.665	0.659	0.595	1.04	0.971	1.06	0.959
NCI-H647	1.16		1.09	1.01	1.22		1.22	1.01	0.147		0.368	0.398	0.18		0.222	0.167	0.417	0.438	0.455	0.354
NCI-H727	0.359	0.355	0.364	0.497	0.744	0.891	1.05	0.886	0.512	0.73	0.599	0.554	0.365	0.408	0.294	0.306	0.997	0.782	0.884	0.825
NCI-H838	1.18	1.14	1.18	1.08	0.997	0.985	1.01	1.02	0.265	0.308	0.301	0.286	0.27	0.31	0.297	0.295	0.486	0.498	0.518	0.434
NCI-H1355	0.967	0.919	0.858	0.896	0.961	1.01	0.998	0.978	0.525	0.619	0.551	0.564	0.677	0.886	0.672	0.737	0.342	0.359	0.379	0.371
NCI-H1395	1.23	1.16	1.19	1.08	0.818	1.1	0.97	0.914	0.705	0.77	0.734	0.758	0.386	0.392	0.458	0.413	0.723	0.771	0.695	0.685
NCI-H1437	1.15	1.14	1.18	1.03	1.29	1.34	1.24	1.2	0.412	0.439	0.421	0.424	0.386	0.445	0.35	0.541	0.591	0.599	0.599	0.591
NCI-H1650	1.32	1.16	1.26	1.1	0.987		1.08	1.3	0.371		0.364	0.473	0.335		0.324	0.304	0.412	0.352	0.493	0.34
NCI-H1651	1.03	1.07	1.05	0.925	0.828	0.853	0.857	0.737	0.723	0.922	0.834	0.614	0.412	0.387	0.443	0.368	0.653	0.566	0.596	0.622
NCI-H1666	0.896	1.05	0.973	0.893	0.932	1	1.01	0.94	0.556	0.638	0.526	0.657	0.898	0.835	0.886	0.805	0.809	0.673	0.696	0.661
